# Results published in patent publication US11013780B2, “Methods of treating female infertility” (Myovant Sciences GmbH, priority 2016, dated 2021).
# Where a SMILES comes first, the peptide text is derived from it. [ ]: non-standard residue; d: D form. Arg(Me) = CNC(=N)NCCC[C@H](N)C(=O)O; Hyp = O=C(O)[C@@H]1C[C@@H](O)CN1; azaGly = NNC(=O)O
# How the values were obtained:
# [1] = Pharmacokinetics in dogs after SC and IV administration; conditions: dog, in vivo
# From the text: The PK of API-MA was studied in dogs after SC and IV administration.
# [2] = Pharmacokinetics in monkeys after SC and IV administration; conditions: monkey, in vivo
# From the text: The PK of API-MA was studied in monkeys after SC and IV administration.
# [3] = Multiple-dose PK, 2-hour SC infusion once daily for 14 days, Japanese prostate cancer patients; assay type: in vivo, human; conditions: male, human, in vivo, sc; for dose excreted: Mean percent cumulative urinary excretion at 24 hours postdose
# Protocol: It was an open-label, ascending dose study of API-MA administered via 2-hour SC infusion once daily for 14 days that was expected to suppress testosterone in Japanese hormone-naïve prostate cancer patients. Six patients received API-MA at doses of 0.5 mg (3 patients) and 1.0 mg (3 patients) a day for 14 days.
# To measure plasma concentrations of API-MA, blood specimens were collected at the following times: Day 1 (predose and 2, 4, 6, 10 hours postdose); days 2, 4, 6, 8, 10, and 12 (predose); day 14 (predose and 2, 4, 6, 10, 24, 48 hours postdose); day 21; and day 28. To measure urinary excretion of API-MA, urine specimens were collected at the following times: Day 1 (predose and 0 to 4, 4 to 8, 8 to 12, 12 to 24 hours postdose) and day 14 (0 to 4, 4 to 8, 8 to 12, 12 to 24 hours postdose).
# [4] = Pharmacokinetics in rats after SC and IV administration; conditions: rat, in vivo
# Protocol: The PK of API-MA was studied in rats after SC and IV administration.
# The PK linearity of API-MA was also investigated in rats after IV administration. The plasma C5min and AUC(0-24) values increased dose-proportionally. […] The elimination T1/2 values were 0.4 hours at 0.01 and 0.1 mg/kg and 0.5 hours at 1 mg/kg. These findings indicate that the PK of API-FB was linear in rats after single IV administration over the dose range of 0.01 to 1 mg/kg. The greater than dose-proportional increase in the first-pass kinetics with SC administration would indicate nonlinear PK in rats after SC administration.
# [5] = iv, 1 mg/kg, T½ γ (elimination)
compound,measurement,setting,value
"CNC(=N)NCCC[C@H](NC(=O)[C@H](CC(C)C)NC(=O)NNC(=O)[C@H](Cc1ccccc1)NC(=O)[C@@H](NC(=O)[C@H](CC(N)=O)NC(=O)[C@@H]1C[C@@H](O)CN1C(=O)[C@@H](Cc1ccc(O)cc1)NC(C)=O)[C@@H](C)O)C(=O)N[C@@H](Cc1c[nH]c2ccccc12)C(N)=O [Compound 1, 2-(N-Acetyl-D-tyrosyl-trans-4-hydroxy-L-prolyl-L-asparaginyl-L-threonyl-L-phenylalanyl)-hydrazinocarbonyl-L-leucyl-Nω-methyl-L-arginyl-L-tryptophanamide] (Ac-[dY][Hyp]NTF[azaGly]L[Arg(Me)]W-NH2)",AUC(0-t),"[1]; iv, 1 mg/kg",3.09 ± 0.08 µg·h/mL
same,Cmax at 5 min,"[1]; iv, 1 mg/kg",4.25 ± 0.543 µg/mL
same,half-life,"[1]; iv, 1 mg/kg, T½ α",0.2 h
same,half-life,"[1]; iv, 1 mg/kg, T½ β",1.1 h
same,half-life,[1]; [5],3 ± 0.1 h
same,AUC(0-t),"[1]; sc, 0.1 mg/kg",0.252 ± 0.034 µg·h/mL
same,Cmax,"[1]; sc, 0.1 mg/kg",0.0866 ± 0.019 µg/mL
same,Tmax,"[1]; sc, 0.1 mg/kg",0.8 ± 0.3 h
same,bioavailability,"[1]; sc, 0.1 mg/kg",81.5 ± 11.5%
same,half-life,"[1]; sc, 0.1 mg/kg, T½ β",1.4 ± 0.2 h
same,AUC(0-t),"[1]; sc, 1 mg/kg",2.6 ± 0.219 µg·h/mL
same,Cmax,"[1]; sc, 1 mg/kg",0.883 ± 0.251 µg/mL
same,Tmax,"[1]; sc, 1 mg/kg",0.8 ± 0.3 h
same,bioavailability,"[1]; sc, 1 mg/kg",84 ± 8.1%
same,half-life,"[1]; sc, 1 mg/kg, T½ β",1.4 ± 0.3 h
same,half-life,"[1]; sc, 1 mg/kg, T½ γ",2.6 ± 0.2 h
same,AUC(0-t),"[1]; sc, 10 mg/kg",28.6 µg·h/mL
same,Cmax,"[1]; sc, 10 mg/kg",8.84 ± 1.2 µg/mL
same,Tmax,"[1]; sc, 10 mg/kg",1 h
same,bioavailability,"[1]; sc, 10 mg/kg",92.7 ± 7.7%
same,half-life,"[1]; sc, 10 mg/kg, T½ β",1.5 ± 0.4 h
same,half-life,"[1]; sc, 10 mg/kg, T½ γ",2.6 ± 0.1 h
same,AUC(0-t),"[2]; iv, 1 mg/kg",3.16 ± 0.594 µg·h/mL
same,Cmax at 5 min,"[2]; iv, 1 mg/kg",5.03 ± 0.787 µg/mL
same,half-life,"[2]; iv, 1 mg/kg, T½ α",0.3 h
same,half-life,"[2]; iv, 1 mg/kg, T½ β",1.2 ± 0.1 h
same,half-life,[2]; [5],3.2 ± 0.1 h
same,AUC(0-t),"[2]; sc, 0.1 mg/kg",0.295 ± 0.027 µg·h/mL
same,Cmax,"[2]; sc, 0.1 mg/kg",0.123 ± 0.0273 µg/mL
same,Tmax,"[2]; sc, 0.1 mg/kg",0.4 ± 0.1 h
same,bioavailability,"[2]; sc, 0.1 mg/kg",94.9 ± 12.4%
same,half-life,"[2]; sc, 0.1 mg/kg, T½ β",1.6 ± 0.3 h
same,AUC(0-t),"[2]; sc, 1 mg/kg",2.79 ± 0.262 µg·h/mL
same,Cmax,"[2]; sc, 1 mg/kg",1.32 ± 0.316 µg/mL
same,Tmax,"[2]; sc, 1 mg/kg",0.3 h
same,bioavailability,"[2]; sc, 1 mg/kg",90.1 ± 15.4%
same,half-life,"[2]; sc, 1 mg/kg, T½ β",1.4 ± 0.2 h
same,half-life,"[2]; sc, 1 mg/kg, T½ γ",2.5 ± 0.2 h
same,AUC(0-t),"[2]; sc, 10 mg/kg",31.6 µg·h/mL
same,Cmax,"[2]; sc, 10 mg/kg",12.1 µg/mL
same,Tmax,"[2]; sc, 10 mg/kg",0.4 ± 0.1 h
same,bioavailability,"[2]; sc, 10 mg/kg",102 ± 14.3%
same,half-life,"[2]; sc, 10 mg/kg, T½ β",1.5 ± 0.3 h
same,half-life,"[2]; sc, 10 mg/kg, T½ γ",2.6 ± 0.3 h
same,Mean percent cumulative urinary excretion at 24 hours postdose,[3]; 0.5 mg/day,8.99%
same,dose excreted,[3]; 0.5 mg/day,6.5%
same,Mean percent cumulative urinary excretion at 24 hours postdose,[3]; 1 mg/day,9.41%
same,dose excreted,[3]; 1 mg/day,8.86%
same,AUC(0-t),"[4]; iv, 1 mg/kg",1.46 ± 0.143 µg·h/mL
same,Cmax at 5 min,"[4]; iv, 1 mg/kg",2.67 ± 0.234 µg/mL
same,AUC(0-t),"[4]; sc, 0.1 mg/kg",0.123 ± 0.009 µg·h/mL
same,Cmax,"[4]; sc, 0.1 mg/kg",0.09 ± 0.0125 µg/mL
same,Tmax,"[4]; sc, 0.1 mg/kg",0.5 h
same,AUC(0-t),"[4]; sc, 1 mg/kg",0.804 ± 0.133 µg·h/mL
same,Cmax,"[4]; sc, 1 mg/kg",0.381 ± 0.0755 µg/mL
same,Tmax,"[4]; sc, 1 mg/kg",0.9 ± 0.2 h
same,bioavailability,"[4]; sc, 1 mg/kg",55.3 ± 8.6%
same,AUC(0-t),"[4]; sc, 10 mg/kg",0.309 ± 0.07 µg·h/mL
same,Cmax,"[4]; sc, 10 mg/kg",0.285 ± 0.0586 µg/mL
same,Tmax,"[4]; sc, 10 mg/kg",0.3 h
